Experiments:
[1] = tested on: barnyardgrass; experiment: Test A pre-/postemergence herbicide test; format: in vivo, Echinochloa crus-galli
How it was run: (§1)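 Visual injury scores on a 0–100 scale (100 = complete control) taken about ten days post-treatment in greenhouse against untreated controls; dash means no result. Treatments: preemergence soil spray and postemergence spray to runoff on one- to two-leaf plants 2 to 10 cm tall, surfactant-containing formulation.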

[2] = tested on: small flower umbrella sedge; experiment: Test B flooded paddy test; format: in vivo, Cyperus difformis; settings: 1000 g ai/ha, scale 0 to 100 (0 no effect, 100 complete control)
How it was run: (§2)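 Visual control ratings, 0–100 versus untreated controls, taken after 13 to 15 days in the greenhouse. Blackgrass received a postemergence spray at the 1- to 4-leaf stage (2–18 cm); ducksalad, umbrella sedge and barnyardgrass were flooded-paddy treated at 2 leaves.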

[3] = tested on: morningglory; experiment: Test B pre-/postemergence herbicide test; format: in vivo, Ipomoea coccinea; settings: for Morningglory plant response rating: postemergence
How it was run: (§3)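 Response was scored visually 13 to 15 days after treatment against untreated greenhouse controls, 0 meaning no effect and 100 complete control. Formulations (solvent mixture plus surfactant) went onto soil after planting, onto foliage of 1- to 4-leaf plants, and onto 2-leaf plants in a flooded paddy set including rice and barnyardgrass.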

[4] = tested on: large crabgrass; experiment: Test B pre-/postemergence herbicide test; format: in vivo, Digitaria sanguinalis; settings: for Crabgrass, Large plant response rating: postemergence
How it was run: as §3

[5] = tested on: velvetleaf; experiment: Test B pre-/postemergence herbicide test; format: in vivo, Abutilon theophrasti; settings: for Velvetleaf plant response rating: postemergence
How it was run: as §3

[6] = tested on: redroot pigweed; experiment: Test A pre-/postemergence herbicide test; format: in vivo, Amaranthus retroflexus
How it was run: as §1

[7] = tested on: rice; experiment: Test B pre-/postemergence herbicide test; format: in vivo, Oryza sativa; settings: preemergence
How it was run: as §3

[8] = tested on: wild oat; experiment: Test B postemergence herbicide test; format: in vivo, Avena fatua; settings: postemergence
How it was run: (§4)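 Formulated test chemicals went onto postemergence plants measuring 2 to 18 cm, at one to four leaves. For the paddy assay, species had reached two leaves. Scoring took place 13–15 days later by eye, relative to untreated plants, using 0 for no effect up to 100 for full control.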

[9] = tested on: cocklebur; experiment: Test B pre-/postemergence herbicide test; format: in vivo, Xanthium strumarium; settings: for Cocklebur plant response rating: postemergence
How it was run: as §3

[10] = tested on: morningglory; experiment: Test A pre-/postemergence herbicide test; format: in vivo, Ipomoea spp.
How it was run: as §1

[11] = tested on: barnyardgrass; experiment: Test B pre-/postemergence herbicide test; format: in vivo, Echinochloa crus-galli; settings: for Barnyardgrass plant response rating: postemergence
How it was run: as §3

[12] = tested on: rice; experiment: Test B flooded paddy test; format: in vivo, Oryza sativa; settings: 1000 g ai/ha, scale 0 to 100 (0 no effect, 100 complete control)
How it was run: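 Postemergence plants were sprayed with formulated test chemicals at 2 to 18 cm height (1- to 4-leaf stage); paddy species were grown to the 2-leaf stage. After 13 to 15 days in a greenhouse, injury was rated visually against untreated controls on a 0–100 scale (0 = no effect, 100 = complete control).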

[13] = tested on: giant foxtail; experiment: Test A pre-/postemergence herbicide test; format: in vivo, Setaria faberi
How it was run: as §1

[14] = tested on: lambsquarters; experiment: Test B pre-/postemergence herbicide test; format: in vivo, Chenopodium album; settings: for Lambsquarters plant response rating: postemergence
How it was run: as §3

[15] = tested on: corn; experiment: Test B pre-/postemergence herbicide test; format: in vivo, Zea mays; settings: for Corn plant response rating: postemergence
How it was run: as §3

[16] = tested on: blackgrass; experiment: Test B postemergence herbicide test; format: in vivo, Alopecurus myosuroides; settings: postemergence
How it was run: as §2

[17] = tested on: velvetleaf; experiment: Test A pre-/postemergence herbicide test; format: in vivo, Abutilon theophrasti
How it was run: as §1

[18] = tested on: large crabgrass; experiment: Test A pre-/postemergence herbicide test; format: in vivo, Digitaria sanguinalis
How it was run: as §1

[19] = tested on: Surinam grass; experiment: Test B pre-/postemergence herbicide test; format: in vivo, Urochloa decumbens; settings: for Surinam Grass plant response rating: postemergence
How it was run: as §3

[20] = tested on: wheat; experiment: Test B postemergence herbicide test; format: in vivo, Triticum aestivum; design: key to Wheat plant response rating: 0 = no effect, 100 = complete control; settings: postemergence
How it was run: as §4

[21] = tested on: ducksalad; experiment: Test B flooded paddy test; format: in vivo, Heteranthera limosa; settings: 1000 g ai/ha, scale 0 to 100 (0 no effect, 100 complete control)
How it was run: as §2

[22] = tested on: pigweed; experiment: Test B pre-/postemergence herbicide test; format: in vivo, Amaranthus retroflexus; settings: for Pigweed plant response rating: postemergence
How it was run: as §3

[23] = tested on: barnyardgrass; experiment: Test B flooded paddy test; format: in vivo, Echinochloa crus-galli; settings: 1000 g ai/ha, scale 0 to 100 (0 no effect, 100 complete control)
How it was run: as §2

[24] = tested on: giant foxtail; experiment: Test B pre-/postemergence herbicide test; format: in vivo, Setaria faberi; settings: for Foxtail, Giant plant response rating: postemergence
How it was run: as §3

[25] = Postemergence, 500 g ai/ha, 0 to 100 scale, 0 no effect, 100 complete control
[26] = Postemergence, 2000 g ai/ha, 0 to 100 scale, 0 no effect, 100 complete control
[27] = Preemergence, 2000 g ai/ha, visual rating, 0 to 100 scale (0 no effect, 100 complete control)
[28] = preemergence, 500 g ai/ha, visual injury, 0 to 100 scale (0 no effect, 100 complete control)
[29] = 125 g ai/ha, 0 is no effect, 100 is complete control, preemergence
[30] = 125 g ai/ha, visual rating, scale 0 (no effect) to 100 (complete control)
[31] = 500 g ai/ha, visual rating, 0 = no effect, 100 = complete control, preemergence
[32] = 500 g ai/ha, scale 0 to 100, 0 is no effect, 100 is complete control

## C#CCOC(=O)c1cccc(NC(=O)c2cc(C(C)(C)C)nn2C)n1 [Compound 317]
[1]; [25]
  Barnyardgrass plant response rating: 0
[1]; [26]
  Plant response rating, Barnyardgrass: 0
[1]; [27]
  Barnyardgrass plant response rating: 0
[1]; [28]
  Barnyardgrass plant response rating: 0
[2]
  Sedge, Umbrella plant response rating: 0
[3]; [29]
  Plant response rating (0 to 100 scale), Morningglory: 0
[3]; [30]
  Morningglory plant response rating: 0
[3]; [31]
  Plant response rating, Morningglory: 0
[3]; [32]
  Morningglory plant response rating: 0
[4]; [29]
  Plant response rating (0 to 100 scale), Crabgrass, Large: 0
[4]; [30]
  Crabgrass, Large plant response rating: 0
[4]; [31]
  Plant response rating, Crabgrass, Large: 0
[4]; [32]
  Crabgrass, Large plant response rating: 0
[5]; [29]
  Plant response rating (0 to 100 scale), Velvetleaf: 0
[5]; [30]
  Velvetleaf plant response rating: 0
[5]; [31]
  Plant response rating, Velvetleaf: 0
[5]; [32]
  Velvetleaf plant response rating: 0
[6]; [25]
  Pigweed plant response rating: 0
[6]; [26]
  Plant response rating, Pigweed: 10
[6]; [27]
  Pigweed plant response rating: 30
[6]; [28]
  Pigweed plant response rating: 20
[7]; 125 g ai/ha, 0 is no effect, 100 is complete control
  Plant response rating (0 to 100 scale), Rice: 0
[7]; 500 g ai/ha, visual rating, 0 = no effect, 100 = complete control
  Plant response rating, Rice: 0
[8]; [30]
  Oat, Wild plant response rating: 0
[8]; [32]
  Oat, Wild plant response rating: 0
[9]; [29]
  Plant response rating (0 to 100 scale), Cocklebur: 0
[9]; [30]
  Cocklebur plant response rating: 0
[9]; [31]
  Plant response rating, Cocklebur: 0
[9]; [32]
  Cocklebur plant response rating: 0
[10]; [25]
  Morningglory plant response rating: 0
[10]; [26]
  Plant response rating, Morningglory: 0
[10]; [27]
  Morningglory plant response rating: 0
[10]; [28]
  Morningglory plant response rating: 0
[11]; [29]
  Plant response rating (0 to 100 scale), Barnyardgrass: 0
[11]; [30]
  Barnyardgrass plant response rating: 0
[11]; [31]
  Plant response rating, Barnyardgrass: 0
[11]; [32]
  Barnyardgrass plant response rating: 0
[12]
  Rice plant response rating: 0
[13]; [25]
  Foxtail, Giant plant response rating: 0
[13]; [26]
  Plant response rating, Foxtail, Giant: 0
[13]; [27]
  Foxtail, Giant plant response rating: 0
[13]; [28]
  Foxtail, Giant plant response rating: 0
[14]; [29]
  Plant response rating (0 to 100 scale), Lambsquarters: 0
[14]; [30]
  Lambsquarters plant response rating: 0
[14]; [31]
  Plant response rating, Lambsquarters: 0
[14]; [32]
  Lambsquarters plant response rating: 50
[15]; [29]
  Plant response rating (0 to 100 scale), Corn: 0
[15]; [30]
  Corn plant response rating: 0
[15]; [31]
  Plant response rating, Corn: 0
[15]; [32]
  Corn plant response rating: 0
[16]; [30]
  Blackgrass plant response rating: 0
[16]; [32]
  Blackgrass plant response rating: 0
[17]; [25]
  Velvetleaf plant response rating: 0
[17]; [26]
  Plant response rating, Velvetleaf: 0
[17]; [27]
  Velvetleaf plant response rating: 30
[17]; [28]
  Velvetleaf plant response rating: 0
[18]; [25]
  Crabgrass, Large plant response rating: 10
[18]; [26]
  Plant response rating, Crabgrass, Large: 10
[18]; [27]
  Crabgrass, Large plant response rating: 10
[18]; [28]
  Crabgrass, Large plant response rating: 0
[19]; [29]
  Plant response rating (0 to 100 scale), Surinam Grass: 0
[19]; [30]
  Surinam Grass plant response rating: 0
[19]; [31]
  Plant response rating, Surinam Grass: 0
[19]; [32]
  Surinam Grass plant response rating: 0
[20]; [30]
  Wheat plant response rating: 0
[20]; [32]
  Wheat plant response rating: 0
[21]
  Ducksalad plant response rating: 0
[22]; [29]
  Plant response rating (0 to 100 scale), Pigweed: 0
[22]; [30]
  Pigweed plant response rating: 0
[22]; [31]
  Plant response rating, Pigweed: 0
[22]; [32]
  Pigweed plant response rating: 0
[23]
  Barnyardgrass plant response rating: 0
[24]; [29]
  Plant response rating (0 to 100 scale), Foxtail, Giant: 0
[24]; [30]
  Foxtail, Giant plant response rating: 0
[24]; [31]
  Plant response rating, Foxtail, Giant: 0
[24]; [32]
  Foxtail, Giant plant response rating: 0

From US20060069132A1, “Azolecarboxamide herbicides” (priority 2004, published 2006)
